Entries after “also recorded” stand apart in the source; their conditions may differ.
Target: T1, Cdk2(ES) (Homo sapiens, UniProt P24941, C177A/F80C)
T1 construct: GST (N, cleaved yes); made in house; host or cells: E. coli Tuner(DE3)
Assay: intact-protein mass spectrometry of covalent modification
Assay type: binding
Settings: 0.5 mM acrylamide; 2 h for acrylamide 1
From the text: To orthogonally validate the results from the qIT assay, we undertook a mass spectrometric study to obtain a direct measurement of both the extent and site of covalent fragment modification. […] To confirm C80 as the site of modification, the 1‐Cdk2(ES) complex was digested with trypsin and the resulting peptides analysed by MALDI mass spectrometry. […] Tandem mass spectrometric analysis of this ion enabled confirmatory sequencing of the peptide and unambiguous assignment of C80 as the site of modification (Figure 4b).
See High-Throughput Kinetic Analysis for Target-Directed Covalent Ligand Discovery for full library details.4 In brief, Acryla-mide fragments were synthesized from amine precursors; 14,000 primary and secondary amines were selected from Enamine’s commercial collection with molecular weight < 250 Da, from which 235 unique Bemis-Murcko frameworks were generated.[5] […] The physiochemical properties of the final library were calculated using DataWarrior[6] and found to broadly comply with the ‘Rule of 3’ guidelines. […]
Reaction-plate setup: Each well of a 96-well PCR plate was charged with 60–100 µL of target thiol (GSH or protein, 10 µM) and 4% w/v TCEP-agarose beads in 100 mM phosphate buffer (pH 7.5 or 8) and cooled to 4 °C. […] For each time point, the fluorescence of each reaction was normalized relative Cdk2(ES)/GSH only control = maximum signal, DMSO only = minimum signal. […]

| SMILES | covalent modification of Cdk2(ES) |
| --- | --- |
| C=CC(=O)Nc1ccc(-c2ncccn2)cc1 [S1] | complete mono‐modification |
| C=CC(=O)N1CCCc2cc(C(=O)OC)ccc21 [compound 1] | fully modifies; also recorded: complete mono‐modification |

Reference: PMC7754465, “Multiparameter Kinetic Analysis for Covalent Fragment Optimization by Using Quantitative Irreversible Tethering (qIT)” (Chembiochem, 2020)
